Data published in patent US20230102520A1, “INHIBITORS OF LOW MOLECULAR WEIGHT PROTEIN TYROSINE PHOSPHATASE (LMPTP) AND USES THEREOF” (Sanford Burnham Prebys Medical Discovery Institute, priority 2019, published 2023).

These compounds were tested against T1, human LMPTP-A (Homo sapiens, UniProt P24666) (assay: Enzyme Assay of Inhibition of LMPTP-A). Conditions: phosphatase assay, OMFP or pNPP substrate, 50 mM Bis-Tris pH 6.0, 37° C.
T1 sequence (P24666 1-158): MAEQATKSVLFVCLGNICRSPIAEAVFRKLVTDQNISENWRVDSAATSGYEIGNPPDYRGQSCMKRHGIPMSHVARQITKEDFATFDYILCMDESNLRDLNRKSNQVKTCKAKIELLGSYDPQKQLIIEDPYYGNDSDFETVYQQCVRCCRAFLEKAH
Format: biochemical
Description: Example B-1: Enzyme Assay of Inhibition of LMPTP-A
Phosphatase assays were performed in buffer containing 50 mM Bis-Tris, pH 6.0, 1 mM DTT and 0.01% Triton X-100 at 37° C. For assays conducted with 3-O-methylfluorescein phosphate (OMFP) as substrate, fluorescence was monitored continuously at λex=485 and λem=525 nm. For assays conducted with para-nitrophenylphosphate (pNPP) as substrate, the reaction was stopped by addition of 2× reaction volume of 1 M NaOH, and absorbance was measured at 405 nm. IC50 values of compounds disclosed herein were determined from plots of inhibitor concentration versus percentage of enzyme activity. For inhibitor selectivity assays, each PTP was incubated with either 0.4 mM OMFP or 5 mM pNPP in the presence of 40 μM compound or DMSO. […] For the inhibitor reversibility assay, 50 nM human LMPTP-A was pre-incubated with 10 μM of compound disclosed herein or DMSO for 5 min. The enzyme was diluted 100× in phosphatase assay buffer containing 0.4 mM OMFP and fluorescence was measured at the indicated time points.

Row | IC50 [nM] | Compound
1 | < 1000 | Cc1ccccc1-c1nc2c(N)ncn(Cc3c(Cl)nc(N)nc3Cl)c-2n1 [3-[(2-amino-4,6-dichloropyrimidin-5-yl)methyl]-8-(2-methylphenyl)-3-hydropurine-6-ylamine]
2 | < 1000 | Cc1nc(C)c(Cn2cnc(N)c3nc(-c4ccccc4C)nc2-3)s1 [3-[(2,4-dimethyl(1,3-thiazol-5-yl))methyl]-8-(2-methylphenyl)-3-hydropurine-6-ylamine]
3 | < 1000 | Cn1ncc(Br)c1Cn1cnc(N)c2nc(-c3ccccc3)nc1-2 [3-[(4-bromo-1-methylpyrazol-5-yl)methyl]-8-phenyl-3-hydropurine-6-ylamine]
4 | < 1000 | Nc1ncn(Cc2c(Cl)ccnc2Cl)c2nc(-c3cc(F)ccc3F)nc1-2 [3-[(2,4-dichloro(3-pyridyl))methyl]-8-(2,5-difluorophenyl)-3-hydropurine-6-ylamine]
5 | < 1000 | Nc1ncn(Cc2c(Cl)cncc2Cl)c2nc(-c3ccc4c(c3)OCO4)nc1-2 [8-(2H-benzo[d]1,3-dioxolen-5-yl)-3-[(3,5-dichloro(4-pyridyl))methyl]-3-hydropurine-6-ylamine]
6 | < 1000 | Cc1ccccc1-c1nc2c(N)ncn(Cc3c(Cl)ncnc3Cl)c-2n1 [3-[(4,6-dichloropyrimidin-5-yl)methyl]-8-(2-methylphenyl)-3-hydropurine-6-ylamine]
7 | < 1000 | Nc1ncn(Cc2c(Cl)ncnc2Cl)c2nc(-c3ccccc3)nc1-2 [3-[(4,6-dichloropyrimidin-5-yl)methyl]-8-phenyl-3-hydropurine-6-ylamine]
8 | < 1000 | Nc1ncn(Cc2c(Cl)ccnc2Cl)c2nc(Cc3ccc(F)cc3)nc1-2 [3-[(2,4-dichloro(3-pyridyl))methyl]-8-[(4-fluorophenyl)methyl]-3-hydropurine-6-ylamine]
9 | 1000 to 20000 | Cc1ncsc1Cn1cnc(N)c2nc(-c3ccccc3)nc1-2 [3-[(4-methyl(1,3-thiazol-5-yl))methyl]-8-phenyl-3-hydropurine-6-ylamine]
10 | < 1000 | 3-[(4-iodo-2-methoxy(3-pyridyl))methyl]-8-(2-methylphenyl)-3-hydropurine-6-ylamine
11 | < 1000 | Nc1ncn(Cc2c(Cl)ccnc2Cl)c2nc(-c3ccc4c(c3)CCCC4)nc1-2 [3-[(2,4-dichloro(3-pyridyl))methyl]-8-(2-5,6,7,8-tetrahydronaphthyl)-3-hydropurine-6-ylamine]
12 | < 1000 | Cn1cnc2ccc(-c3nc4c(N)ncn(Cc5c(Cl)cncc5Cl)c-4n3)cc21 [3-[(3,5-dichloro(4-pyridyl))methyl]-8-(1-methylbenzimidazol-6-yl)-3-hydropurine-6-ylamine]
13 | < 1000 | Nc1ncn(Cc2c(Cl)cncc2Cl)c2nc(-c3cnn4ccccc34)nc1-2 [3-[(3,5-dichloro(4-pyridyl))methyl]-8-(8-hydropyrazolo[1,5-a]pyridin-3-yl)-3-hydropurine-6-ylamine]
14 | < 1000 | Nc1ncn(Cc2c(Br)cncc2Br)c2nc(-c3cnn4ccccc34)nc1-2 [3-[(3,5-dibromo(4-pyridyl))methyl]-8-(8-hydropyrazolo[1,5-a]pyridin-3-yl)-3-hydropurine-6-ylamine]
15 | < 1000 | 3-[(3,5-diiodo(4-pyridyl))methyl]-8-(2-methylphenyl)-3-hydropurine-6-ylamine
16 | < 1000 | Cc1ccccc1-c1nc2c(N)ncn(Cc3sccc3Cl)c-2n1 [3-[(3-chloro(2-thienyl))methyl]-8-(2-methylphenyl)-3-hydropurine-6-ylamine]
17 | < 1000 | Cn1cnc2cc(-c3nc4c(N)ncn(Cc5c(Cl)cncc5Cl)c-4n3)ccc21 [3-[(3,5-dichloro(4-pyridyl))methyl]-8-(1-methylbenzimidazol-5-yl)-3-hydropurine-6-ylamine]
18 | < 1000 | Nc1ncn(Cc2c(Cl)ccnc2Cl)c2nc(-c3ccc4ncsc4c3)nc1-2 [8-benzothiazol-6-yl-3-[(2,4-dichloro(3-pyridyl))methyl]-3-hydropurine-6-ylamine]
19 | < 1000 | Nc1ncn(Cc2c(Cl)cncc2Cl)c2nc(-c3ccc4sccc4c3)nc1-2 [8-benzo[b]thiophen-5-yl-3-[(3,5-dichloro(4-pyridyl))methyl]-3-hydropurine-6-ylamine]
